# Where two headings read alike, the source gives them in different places.
# Assays:
# [1] = system: murine P388 lymphocytic leukemia cells; test: In vitro anti-tumor activity against murine P388 lymphocytic leukemia cells (MTT, 72 h); type: cell-based; conditions: Mus musculus; murine P388 cells, 72 h, MTT; read-out: IC50 (50% proliferation inhibitory concentration)
# Protocol: Test compounds were tested for anti-tumor activity according to MTT [3-(4,5-dimethylthiazol-2-yl)-2,5-diphenyltetrazolium bromide] method, using murine P388 lymphocytic leukemia cells. […] The culture medium was centrifuged (4° C., 2,000 rpm for 20 minutes), and thus, the supernatants were removed by suction. Then, 0.1 ml of dimethyl sulfoxide was put in each well to dissolve the formed formazan, and, subsequently, another 0.1 ml of dimethyl sulfoxide was added. The absorbance (OD) of each of the obtained solutions was measured by use of Multiskan Bichromatic (main wavelength 570 nm, sub-wavelength 690 nm). […] IC50 :μg/ml) were calculated by the least squares method.
# [2] = system: KB human nasopharynx cancer; test: In vitro anti-tumor activity against KB human nasopharynx cancer (MTT); type: cell-based; conditions: KB, 72 h, MTT, read-out: IC50
# Protocol: (§1) A culture medium containing 500 to 2,000 human cancer cells was put in an amount of 0.1 ml in each well of 96-well plate, and the cells were cultured for 20 hours under a condition of 37° C. and 5% carbon dioxide gas in air. After the culturing, a solution of test compounds of predetermined concentration was added, and then, the cells were cultured for further 72 hours. After the culturing, an MTT (5 mg/ml) solution was added in an amount of 0.01 ml in the respective wells, and the cells were cultured for further 4 hours. The supernatants of the culture medium were removed by suction, and then, 0.1 ml of dimethyl sulfoxide was put in respective well to dissolve the formed formazan, and, moreover, 0.1 ml of dimethyl sulfoxide was added.
# [3] = system: HMV2 human melanoma; test: In vitro anti-tumor activity against HMV-2 human melanoma (MTT); type: cell-based; conditions: HMV-2, 72 h, MTT, read-out: IC50
# Protocol: as §1
# [4] = system: AZ521 human stomach cancer; test: In vitro anti-tumor activity against AZ-521 human stomach cancer (MTT); type: cell-based; conditions: AZ-521, 72 h, MTT, read-out: IC50
# Protocol: as §1
# [5] = system: MKN45 human stomach cancer; test: In vitro anti-tumor activity against MKN45 human stomach cancer (MTT); type: cell-based; conditions: MKN-45, MKN45, 72 h, MTT, read-out: IC50
# Protocol: as §1
# [6] = system: WiDr human colorectal cancer; test: In vitro anti-tumor activity against WiDr human colorectal cancer (MTT); type: cell-based; conditions: 72 h, MTT, read-out: IC50
# Protocol: as §1
# [7] = system: C33A human cervix cancer; test: In vitro anti-tumor activity against C-33A human cervix cancer (MTT); type: cell-based; conditions: C-33A, 72 h, MTT, read-out: IC50
# Protocol: as §1
# [8] = system: A427 human lung cancer; test: In vitro anti-tumor activity against A-427 human lung cancer (MTT); type: cell-based; conditions: A-427, 72 h, MTT, read-out: IC50
# Protocol: as §1
# [9] = system: murine P388 lymphocytic leukemia cells; test: Increases in life span of mice implanted with murine P388 lymphocytic leukemia cells; type: in vivo, SLC: BDF1 mice; conditions: Mus musculus, P388, ip, 720 h, ip
# Protocol: 1×10^6 murine P388 lymphocytic leukemia cells were intraperitoneally implanted in each of SLC: BDF1 mice (8 to 10 weeks old, female, 7 animals per one group). A test compound (drug) was either dissolved in 0.1 N--NaOH or suspended in 0.4% carboxymethylcellulose solution, and the resultant solution or suspension was diluted with distilled water or 0.4% carboxymethylcellulose solution so as to give predetermined concentrations for administration. The obtained solution was intraperitoneally (ip) administered twice, namely on the day following the implantation (1st day) and the 5th day, each 0.2 ml. The life and death of the mice were observed over a period of 30 days, and the median survival time (hereinafter referred to as MST) was determined for each group, and, thus, the increase in life span (ILS; %) was calculated according to the following equation:
# ILS (%)=[{(MST of the test group)/(MST of the control group)}-1]×100
# Drug effect was judged in the following manner, according to the criterion of U.S. National Cancer Institute (NCI):
# ILS=75% or higher: ++ (remarkably effective);
# 20 to 74%: + (effective);
# 19% or lower: - (ineffective)
# [10] = system: colon 26 murine tumor cells; test: Tumor growth inhibition effect on colon 26 murine tumor cells implanted mice; type: in vivo, SLC: CDF1 mice; conditions: for inhibition in vivo at 1.56 mg/kg: 1.56 mg/kg once a day; for inhibition in vivo at 3.13 mg/kg: 3.13 mg/kg once a day
# Protocol: A 2% brei of colon 26 murine tumor cells was intracutaneously implanted each 0.1 ml in the abdominal part of SLC: CDF1 female mice (7 to 9 weeks old, 7 animals per one group). […] The obtained solutions were intraperitoneally (ip) administered each 0.2 ml once a day, from the day (1st day) following the implantation to the 9th day. On the 21st or 22nd day after the implantation, tumor weight was estimated from tumor diameters, and thus, the tumor growth inhibition rate (IR %) of the drug administered group in comparison with the control group was calculated according to the following equation. IR (%)=[1-{(MTW in the treated group)/(MTW in the control group)}]×10 0 MTW: mean tumor weight
# [11] = NCI criterion, read-out: Evaluation
# [12] = days 1 and 5, in solution, read-out: ILS (%) (in solution)
# [13] = days 1 and 5, in suspension, read-out: ILS (%) (in suspension)
# [14] = Mus musculus, Colon 26, 504 h, ip, days 1-9, day 21 or 22, read-out: Tumor growth inhibition rate IR (%)
Compound,IC50 [1] [µg/mL],IC50 [2] [µg/mL],IC50 [3] [µg/mL],IC50 [4] [µg/mL],IC50 [5] [µg/mL],IC50 [6] [µg/mL],IC50 [7] [µg/mL],IC50 [8] [µg/mL],"ILS at 3.13 mg/kg [9, 11] [%]","ILS at 12.5 mg/kg [9, 11] [%]","ILS at 25 mg/kg [9, 11] [%]","ILS at 50 mg/kg [9, 11] [%]","ILS at 3.13 mg/kg [9, 13] [%]","ILS at 12.5 mg/kg [9, 12] [%]","ILS at 12.5 mg/kg [9, 13] [%]","ILS at 25 mg/kg [9, 12] [%]","ILS at 50 mg/kg [9, 13] [%]","inhibition in vivo at 1.56 mg/kg [10, 14] [%]","inhibition in vivo at 3.13 mg/kg [10, 14] [%]",other results
CNC1CCN(c2ccc3c(=O)c(C(=O)O)cn(-c4nccs4)c3n2)C1 (stereo not shown) [Compound 6],0.0105,0.0987,0.122,0.0622,0.16,0.381,0.156,0.0832,> 75,> 75,> 75,> 75,100,150,200,225,> 275,71,–,"ILS at 1.56 mg/kg [9, 11]: 20 to 74%; ILS at 6.25 mg/kg [9, 11]: > 75%; ILS at 1.56 mg/kg [9, 12]: 63%; ILS at 3.13 mg/kg [9, 12]: 100%; ILS at 6.25 mg/kg [9, 12]: 138%"
CN[C@@H]1CN(c2cc(N)c3c(=O)c(C(=O)O)cn(-c4nccs4)c3n2)C[C@H]1OC (relative stereo) [Compound 15],0.0157,0.0604,0.119,0.0288,0.0964,0.259,0.0854,0.0696,> 75,> 75,–,> 75,88,–,200,–,238,–,68,–
CN[C@@H]1CN(c2ccc3c(=O)c(C(=O)O)cn(-c4nc(F)cs4)c3n2)C[C@H]1OC (relative stereo) [Compound 16],0.0344,0.126,0.181,0.0798,0.148,0.322,0.132,0.145,20 to 74,> 75,–,> 75,38,–,138,–,238,–,77,–
"O=C(O)c1cn(-c2nccs2)c2nc(N3CCCC3)c(F)cc2c1=O [Compound A, reference compound]",0.0942,1.94,2.88,0.797,1.27,4.09,0.651,0.854,–,–,20 to 74,20 to 74,–,0,–,25,–,–,–,"ILS at 50 mg/kg [9, 12]: 38%; inhibition in vivo at 12.5 mg/kg ([10]; Mus musculus, Colon 26, 504 h, ip, 12.5 mg/kg once a day, days 1-9, day 21 or 22, read-out: Tumor growth inhibition rate IR (%)): 23%; tumor growth inhibition (IR), colon 26, in words ([10]; in words): apparently inferior to the compounds of this invention in view of both doses and inhibition rates"
CC1(N)CCN(c2ccc3c(=O)c(C(=O)O)cn(-c4nccs4)c3n2)C1 (stereo not shown) [Compound 10],0.0192,0.19,0.386,0.292,0.468,0.797,0.247,0.153,20 to 74,> 75,> 75,> 75,50,100,113,125,–,–,74,"ILS at 6.25 mg/kg [9, 11]: > 75%; ILS at 3.13 mg/kg [9, 12]: 63%; ILS at 6.25 mg/kg [9, 12]: 75%; ILS at 50 mg/kg [9, 12]: > 275%"
"CN[C@@H]1CN(c2ccc3c(=O)c(C=O)cn(-c4nccs4)c3n2)C[C@H]1OC.Cl (relative stereo) [Compound 11, 3-Formyl-1,4-dihydro-7-(trans-3-methoxy-4-methylamino-1-pyrrolidinyl)-4-oxo-1-(2-thiazolyl)-1,8-naphthyridine hydrochloride]",0.0309,0.179,0.214,0.0307,0.144,0.264,0.161,0.0749,> 75,> 75,–,> 75,88,–,150,–,225,58,–,"inhibition in vivo at 0.78 mg/kg ([10]; Mus musculus, Colon 26, 504 h, ip, 0.78 mg/kg once a day, days 1-9, day 21 or 22, read-out: Tumor growth inhibition rate IR (%)): 50%"
"Cl.NC1CCN(c2ccc3c(=O)c(C(=O)O)cn(-c4nc(F)cs4)c3n2)C1 (stereo not shown) [Compound 8, 7-(3-Amino-1-pyrrolidinyl)-1-(4-fluoro-2-thiazolyl)-1,4-dihydro-4-oxo-1,8-naphthyridine-3-carboxylic acid hydrochloride]",0.00413,0.0494,0.0578,0.0285,0.143,0.323,0.0712,0.0625,> 75,> 75,–,–,175,–,> 275,–,–,91,–,"ILS at 0.78 mg/kg [9, 11]: > 75%; ILS at 0.78 mg/kg [9, 13]: 75%; inhibition in vivo at 0.39 mg/kg ([10]; Mus musculus, Colon 26, 504 h, ip, 0.39 mg/kg once a day, days 1-9, day 21 or 22, read-out: Tumor growth inhibition rate IR (%)): 57%"

# Reference: patent publication US5817669A, “Compounds, processes for the preparation thereof and anti-tumor agents” (Dainippon Pharmaceutical Co., Ltd., priority 1994, dated 1998)
